20 compounds from patent US7479500B2, “Antidepressant piperidine derivatives of heterocyclefused benzodioxans” (Wyeth, priority 2002, dated 2009) can be followed below.

One data set has as its target T1, serotonin transporter (Rattus norvegicus, UniProt P31652).
T1 construct: displace ^3H-paroxetine from male rat frontal cortical membranes; from tissue; host or cells: male rat frontal cortex membranes
Nature of the data set: 3H-paroxetine displacement from rat frontal cortical membranes (serotonin transporter affinity). It counts as binding.

Data set [1] has as its target T2, cloned human 5-HT1A receptors (Homo sapiens, UniProt P08908).
T2 construct: expressed in transfected cells
T2 sequence (P08908 1-422): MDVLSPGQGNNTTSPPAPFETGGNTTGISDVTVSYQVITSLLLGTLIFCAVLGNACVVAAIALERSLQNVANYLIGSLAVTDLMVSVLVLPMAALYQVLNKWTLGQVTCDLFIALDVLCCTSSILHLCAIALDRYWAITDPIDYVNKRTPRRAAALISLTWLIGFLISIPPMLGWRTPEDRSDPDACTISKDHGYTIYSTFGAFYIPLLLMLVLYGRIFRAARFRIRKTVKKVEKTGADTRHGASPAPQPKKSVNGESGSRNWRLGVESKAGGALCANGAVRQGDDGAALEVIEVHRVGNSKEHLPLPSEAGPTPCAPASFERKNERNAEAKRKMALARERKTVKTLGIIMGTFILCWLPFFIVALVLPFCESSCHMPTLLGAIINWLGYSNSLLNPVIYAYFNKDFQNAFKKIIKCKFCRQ
The experiment in a line: 35S-GTPγS binding assay for antagonist activity at 5-HT1A receptors. Type of data set: biochemical. The following applies: membranes with cloned human 5-HT1A receptors, reversal of agonist 8-OHDPAT; for Emax: read-out: 5-HT1A Function (Imax), maximum inhibitory effect; for IC50: read-out: 5-HT1A Function IC50. How it is done:
Antagonist activity at 5-HT1A receptors was established by using a ^35S-GTPγS binding assay similar to that used by Lazareno and Birdsall (Br. J. Pharmacol. 109: 1120, 1993), in which the test compound's ability to affect the binding of ^35S-GTPγS to membranes containing cloned human 5-HT1A receptors was determined. Agonists produce an increase in binding whereas antagonists produce no increase but rather reverse the effects of the standard agonist 8-OHDPAT. The test compound's maximum inhibitory effect is represented as the Imax, while its potency is defined by the IC50.
On the technique in general: Binding of GTPγS marks nucleotide exchange on a G protein.

Another data set deals with T3, human 5-HT1A receptors (Homo sapiens, UniProt P08908).
T3 construct: expressed in transfected cells; host or cells: CHO cells
T3 sequence (P08908 1-422): T2 sequence (P08908 1-422)
The experiment in a line: [3H] 8-OHDPAT displacement from 5-HT1A receptor in transfected CHO cells. Type of data set: binding. The text has this:
High affinity for the serotonin 5-HT1A receptor was established by testing the claimed compound's ability to displace [^3H] 8-OHDPAT (dipropylaminotetralin) from the 5-HT1A serotonin receptor following a modification of the procedure of Hall et al., J. Neurochem. 44, 1685 (1985) which utilizes CHO cells stably transfected with human 5-HT1A receptors.

Setting [2] is: displacement of 3H-paroxetine, male rat frontal cortical membranes, read-out: 5-HT Transporter Affinity KI.
The mark [3] stands for this setting: displacement of [3H] 8-OHDPAT, CHO cells stably transfected with human 5-HT1A receptors, read-out: 5-HT1A Receptor Affinity KI.

Each structure is given as a SMILES string. Counter-ions that a name gives are not always drawn. Like-named read-outs stand apart in the source and are kept apart here.

T1 sequence (P31652 whole entry): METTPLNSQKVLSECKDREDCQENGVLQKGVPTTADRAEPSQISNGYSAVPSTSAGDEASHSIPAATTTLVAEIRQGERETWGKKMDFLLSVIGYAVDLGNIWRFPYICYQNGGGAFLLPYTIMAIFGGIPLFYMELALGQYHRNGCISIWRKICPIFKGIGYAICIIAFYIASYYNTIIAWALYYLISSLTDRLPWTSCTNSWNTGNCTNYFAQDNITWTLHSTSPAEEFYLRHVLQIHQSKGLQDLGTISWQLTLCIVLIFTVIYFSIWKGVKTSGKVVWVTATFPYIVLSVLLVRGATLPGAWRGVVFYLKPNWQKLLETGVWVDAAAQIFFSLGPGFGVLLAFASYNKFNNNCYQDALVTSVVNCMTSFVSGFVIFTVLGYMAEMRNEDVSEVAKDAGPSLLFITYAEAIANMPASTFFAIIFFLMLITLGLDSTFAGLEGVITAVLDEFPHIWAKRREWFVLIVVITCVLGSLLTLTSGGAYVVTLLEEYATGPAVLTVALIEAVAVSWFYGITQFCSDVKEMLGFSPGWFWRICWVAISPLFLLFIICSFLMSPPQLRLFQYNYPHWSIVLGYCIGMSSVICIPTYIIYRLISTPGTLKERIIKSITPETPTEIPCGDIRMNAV

The Ki is the equilibrium dissociation constant of an inhibitor or competing ligand from its target. For orientation: IC50 means the concentration that inhibits the measured activity by half. By melting point is commonly meant the temperature, or range, at which the solid turns liquid. As for `Cc1ccc2c3c(ccc2n1)OCC(CN1CC=C(c2cc4ccccc4o2)CC1)O3` (stereo not shown) [Example 11, 2-(4-Benzofuran-2-yl-3,6-dihydro-2H-pyridin-1-ylmethyl)-8-methyl-2,3-dihydro-[1,4]dioxino[2,3-f]quinoline], the melting point lay within 149 to 150 °C. Besides, the inhibition constant (Ki) at serotonin transporter (setting [2]) was determined as 213 nM. Besides, in data set [1], the Emax came out at 70% and the IC50 was determined as 15500 nM. On human 5-HT1A receptors, this compound displayed an inhibitory constant (Ki) of 15.7 nM.
Consider `Cc1nc2ccc3c(c2o1)OC(CN1CC=C(c2csc4ccccc24)CC1)CO3` (stereo not shown) [Example 9, 8-(4-Benzo[b]thiophen-3-yl-3,6-dihydro-2H-pyridin-1-ylmethyl)-2-methyl-7,8-dihydro-[1,4]dioxino[2,3-g][1,3]benzoxazole], for which the inhibition constant Ki on serotonin transporter amounted to 13 nM; at human 5-HT1A receptors, 20.2 nM. In addition, the Emax in data set [1] is 50%. Further, in data set [1], the IC50 was 1980 nM.
Turning to `COc1cccc2c(C3=CCN(C[C@H]4COc5ccc6nc(C)ccc6c5O4)CC3)coc12` [Example 4, 2-[4-(7-Methoxy-benzofuran-3-yl)-3,6-dihydro-2H-pyridin-1-ylmethyl]-8-methyl-2,3-dihydro-[1,4]dioxino[2,3-f]guinoline], the results for the Ki at serotonin transporter and at human 5-HT1A receptors were 70 nM and 2.66 nM, respectively. For the same compound, the Emax in data set [1] worked out at 91%. For the same compound, the half-maximal inhibitory concentration (IC50) in data set [1] came out at 167 nM.
In turn, `Cc1ccc2c3c(ccc2n1)OCC(CN1CC=C(c2cc4ccccc4s2)CC1)O3` (stereo not shown) [Example 2, 2-(4-Benzo[b]thiophen-2-yl-3,6-dihydro-2H-pyridin-1-ylmethyl)-8-methyl-2,3-dihydro-[1,4]dioxino[2,3-f]quinoline] yielded a melting point of 174 to 176 °C. On serotonin transporter, affinity was put at a Ki of 78 nM. Further, the Ki on human 5-HT1A receptors (setting [3]) turned out to be 21.6 nM.
As for `Cc1ccc2c3c(ccc2n1)OCC(CN1CC=C(c2csc4ccccc24)CC1)O3` (stereo not shown) [Example 1, 2-(4-Benzo[b]thiophen-3-yl-3,6-dihydro-2H-pyridin-1-ylmethyl)-8-methyl-2,3-dihydro-[1,4]dioxino[2,3-f]quinoline], the Ki on serotonin transporter came out at 9.25 nM. Moreover, in data set [1], the Emax was found to be 100% and the IC50 stood at 499 nM. Affinity at human 5-HT1A receptors was put at a Ki of 4.89 nM.
`Cc1ccc2c3c(ccc2n1)OCC(CN1CCC(c2nc4ccccc4o2)CC1)O3` (stereo not shown) [Example 14, 2-(4-Benzoxazol-2-yl-piperidin-1-ylmethyl)-8-methyl-2,3-dihydro-[1,4]dioxino[2,3-f]quinoline] returned a melting point of 128 to 130 °C. For the same compound, the Ki on serotonin transporter (setting [2]) stood at 17 nM. Further, in data set [1], the Emax is 100% and the IC50 turned out to be 167 nM. Further, the inhibition constant (Ki) on human 5-HT1A receptors (setting [3]) came to 19.8 nM.
Turning to `Cc1ccc2c3c(ccc2n1)OCC(CN1CC=C(c2csc4ccc(F)cc24)CC1)O3` (stereo not shown) (as salt: oxalate) [Example 3, 2-[4-(5-Fluoro-benzo[b]thiophen-3-yl)-3,6-dihydro-2H-pyridin-1-ylmethyl]-8-methyl-2,3-dihydro-[1,4]dioxino[2,3-f]quinoline], the melting point is 197 to 201 °C.
`Cc1ccc2c3c(ccc2n1)OCC(CN1CC=C(c2csc4ccc(F)cc24)CC1)O3` (stereo not shown) [Example 3, 2-[4-(5-Fluoro-benzo[b]thiophen-3-yl)-3,6-dihydro-2H-pyridin-1-ylmethyl]-8-methyl-2,3-dihydro-[1,4]dioxino[2,3-f]quinoline] registered a Ki on serotonin transporter of 18.5 nM. Further, in data set [1], the Emax was 87.4% and the IC50 is 437 nM. The compound further registered a Ki on human 5-HT1A receptors of 15.9 nM.
For the compound `Fc1ccc2scc(C3=CCN(CC4COc5ccc6ncccc6c5O4)CC3)c2c1` (stereo not shown) (as salt: oxalate) [Example 5, 2-[4-(5-Fluoro-benzo[b]thiophen-3-yl)-3,6-dihydro-2H-pyridin-1-ylmethyl]-2,3-dihydro-[1,4]dioxino[2,3-f]quinoline], the melting point lay within 183 to 185 °C.
Still for that read-out and setting: the figure for `Cc1nc2ccc3c(c2o1)OC(CN1CC=C(c2csc4ccccc24)CC1)CO3` (stereo not shown) (as salt: oxalate) [Example 9, 8-(4-Benzo[b]thiophen-3-yl-3,6-dihydro-2H-pyridin-1-ylmethyl)-2-methyl-7,8-dihydro-[1,4]dioxino[2,3-g][1,3]benzoxazole] is 126 to 129 °C; for `Cc1ccc2c3c(ccc2n1)OCC(CN1CC=C(c2cccc4ccsc24)CC1)O3` (stereo not shown) (as salt: oxalate) [Example 10, 2-(4-Benzo[b]thiophen-7-yl-3,6-dihydro-2H-pyridin-1-ylmethyl)-8-methyl-2,3-dihydro-[1,4]dioxino[2,3-f]quinoline] it is 183 to 185 °C.
The compound `Cc1ccc2c3c(ccc2n1)OCC(CN1CCC(c2cc4ccccc4o2)CC1)O3` (stereo not shown) [Example 12, 2-(4-Benzofuran-2-yl-piperidin-1-ylmethyl)-8-methyl-2,3-dihydro-[1,4]dioxino[2,3-f]quinoline] gave a melting point of 103 to 104 °C. In addition, the Ki at serotonin transporter (setting [2]) turned out to be 109 nM. In data set [1], the Emax stood at 100% and the IC50 was determined as 590 nM. The Ki on human 5-HT1A receptors (setting [3]) was found to be 8.67 nM.
The compound `C1=C(c2csc3ccccc23)CCN(CC2COc3ccc4ncccc4c3O2)C1` (stereo not shown) (as salt: oxalate) [Example 6, 2-(4-Benzo[b]thiophen-3-yl-3,6-dihydro-2H-pyridin-1-ylmethyl)-2,3-dihydro-[1,4]dioxino[2,3-f]quinoline] had a melting point of 178 to 180 °C.
With `Cc1ccc2c3c(ccc2n1)OCC(CN1CC=C(c2csc4ccc(Cl)cc24)CC1)O3` (stereo not shown) [Example 13, 2-[4-(5-Chloro-benzo[b]thiophen-3-yl)-3,6-dihydro-2H-pyridin-1-ylmethyl]-8-methyl-2,3-dihydro-[1,4]dioxino[2,3-f]quinoline], at serotonin transporter, the affinity corresponds to a Ki of 94 nM. Also, in data set [1], the Emax stood at 100% and the IC50 worked out at 2520 nM. Further, the Ki on human 5-HT1A receptors (setting [3]) came to 135 nM.
On serotonin transporter, `C1=C(c2csc3ccccc23)CCN(CC2COc3ccc4[nH]ccc4c3O2)C1` (stereo not shown) [Example 7, 2-(4-Benzo[b]thiophen-3-yl-3,6-dihydro-2H-pyridin-1-ylmethyl)-2,3-dihydro-7H-[1,4]dioxino[2,3-e]indole] came in with a Ki of 2.48 nM. In data set [1], the Emax is 100% and the half-inhibitory concentration (IC50) was 25.8 nM. At human 5-HT1A receptors, this compound gave an inhibition constant Ki of 4.74 nM.
On the same counts, the results for `C1=C(c2csc3ccccc23)CCN(CC2COc3ccc4ncccc4c3O2)C1` (stereo not shown) [Example 6, 2-(4-Benzo[b]thiophen-3-yl-3,6-dihydro-2H-pyridin-1-ylmethyl)-2,3-dihydro-[1,4]dioxino[2,3-f]quinoline] are 8.5 nM, 100%, 146 nM and 14.5 nM.
On the same counts, the results for `Fc1ccc2scc(C3=CCN(CC4COc5ccc6ncccc6c5O4)CC3)c2c1` (stereo not shown) [Example 5, 2-[4-(5-Fluoro-benzo[b]thiophen-3-yl)-3,6-dihydro-2H-pyridin-1-ylmethyl]-2,3-dihydro-[1,4]dioxino[2,3-f]quinoline] are 35 nM, 30%, 1000 nM and 23.4 nM.
As to `Cc1ccc2c3c(ccc2n1)OCC(CN1CC=C(c2csc4ccccc24)CC1)O3` (stereo not shown) (as salt: oxalate) [Example 1, 2-(4-Benzo[b]thiophen-3-yl-3,6-dihydro-2H-pyridin-1-ylmethyl)-8-methyl-2,3-dihydro-[1,4]dioxino[2,3-f]quinoline], the melting point was in the range of 129 to 133 °C.
Regarding `Fc1ccc2scc(C3=CCN(C[C@H]4COc5ccc6[nH]ccc6c5O4)CC3)c2c1` [Example 8, 2-[4-(5-Fluoro-benzo[b]thiophen-3-yl)-3,6-dihydro-2H-pyridin-1-ylmethyl]-2,3-m-dihydro-7H-[1,4]dioxino[2,3-e]indole], the inhibition constant Ki on serotonin transporter is 33 nM; at human 5-HT1A receptors, 3.45 nM. Besides, the Emax in data set [1] was found to be 100%. Also, in data set [1], the IC50 was found to be 147 nM.
On the same counts, the results for `Cc1ccc2c3c(ccc2n1)OCC(CN1CC=C(c2cccc4ccsc24)CC1)O3` (stereo not shown) [Example 10, 2-(4-Benzo[b]thiophen-7-yl-3,6-dihydro-2H-pyridin-1-ylmethyl)-8-methyl-2,3-dihydro-[1,4]dioxino[2,3-f]quinoline] are 10 nM, 34.9 nM, 40.5% and 392 nM.
